ChEMBL document CHEMBL1140472, “Antioxidant properties and free radical-scavenging reactivity of a family of hydroxynaphthalenones and dihydroxyanthracenones” (Bioorg Med Chem, 2007)

Columns and labels:
Type in all cases: functional
[1] = DPPH radical scavenging activity at 1.0 mM by ESR
[2] = Hydroxyl radical scavenging activity assessed as Trolox equivalent antioxidant capacity
[3] = DPPH radical scavenging activity at 2.0 mM by ESR
[4] = Hydroxyl radical scavenging activity at 0.6 mM by ESR
[5] = Hydroxyl radical scavenging activity at 1.0 mM by ESR
[6] = Galvinoxyl radical scavenging activity by ESR; set-up: concentration or dose not given beside the values

| SMILES | Activity [1] | Ratio [2] | Activity [3] | Activity [4] | Activity [5] | Activity [6] |
| --- | --- | --- | --- | --- | --- | --- |
| CC1C=CC(CO)c2c(O)c3c(c(O)c21)C(=O)C=CC3(C)C (stereo unspecified) | 4% | 5.1 | 93% | 47.5% | 71.3% | 0% |
| COc1ccc(O)c2c1C(=O)C=CC2(C)C | 4% | 3.42 |  | 47.5% | 48.2% | 0% |
| COc1ccc(O)c2c1C(C)(C)C=CC2=O | 4% | 1.56 |  | 47.5% | 47.5% | 0% |
| CC1C=CC(CO)c2c(O)c3c(c(O)c21)C(C)(C)C=CC3=O (stereo unspecified) | 4% | 6.41 |  | 47.5% | 72% | 0% |
| CC1(C)C=CC(=O)c2c(O)c3c(c(O)c21)CC=CC3 | 4% | 5.86 |  | 47.5% | 68.2% | 0% |
| CC1(C)C=CC(=O)c2c(O)ccc(O)c21 | 4% | 3.76 |  | 47.5% | 50% | 0% |
